Laboratory results as given in patent US20020026053A1, “Novel 3-(substituted) -2- indolinones compounds and use thereof as inhibitors of protein kinase activity” (priority 1997, published 2002).

System: FLK-1 receptor
Assay: FLK-1 Assay (cellular/catalytic ELISA, VEGF-stimulated phosphotyrosine)
Assay type: cell-based
Design: concentration or dose not given beside the values
Conditions: protocol P.110
Outline: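 NIH3T3 C7#3 cells engineered to express Flk-1 were serum-starved overnight (0.1% FBS), then exposed to compound for 2 h at 37 °C (final dilution 1:200, 0.5% DMSO) before VEGF stimulation. Lysates captured on anti-FLK-1 antiserum plates; phosphotyrosine detected by UB40 antibody/POD-ABTS ELISA versus untreated controls.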

SMILES | Flk Kinase % Inhibition (P.110)
COC1CCCN1C=C1C(=O)Nc2c(Br)cc(Br)cc21 (racemic) [10740/A04] | 1.3%
COC1CCCN1C=C1C(=O)Nc2ccc(I)cc21 (racemic) [10740/B04] | −0.3%
Cc1c(Br)cc(Br)c2c1C(=Cc1ccc(CO)o1)C(=O)N2 [10739/H11] | −7.6%
O=C1Nc2c(Br)cc(Br)cc2C1=Cc1cnc2ccccc2c1 [10740/A02] | 5.7%
O=C1Nc2c(Br)cc(Br)cc2C1=Cc1ccnc2ccccc12 [10740/A03] | 4.2%
O=C1Nc2c(Br)cc(Br)cc2C1=Cc1ccsc1 [10740/A05] | −13.1%
O=C1Nc2c(Br)cc(Br)cc2C1=Cc1ccc2ccccc2n1 [10740/A06] | −8.7%
Cn1cc(C=C2C(=O)Nc3c(Br)cc(Br)cc32)c2ccccc21 [10740/A07] | −18.3%
Cc1[nH]c2ccccc2c1C=C1C(=O)Nc2c(Br)cc(Br)cc21 [10740/A08] | −18.3%
O=C1Nc2c(Br)cc(Br)cc2C1=Cc1cc(Br)cs1 [10740/A10] | −7.7%
CCCCOc1ccc(C=C2C(=O)Nc3c(Br)cc(Br)cc32)cc1 [10740/A11] | −3.5%
O=C1Nc2ccc(I)cc2C1=Cc1cnc2ccccc2c1 [10740/B02] | −17.0%
O=C1Nc2ccc(I)cc2C1=Cc1ccnc2ccccc12 [10740/B03] | −9.3%
O=C1Nc2ccc(I)cc2C1=Cc1ccsc1 [10740/B05] | −11.6%
O=C1Nc2ccc(I)cc2C1=Cc1ccc2ccccc2n1 [10740/B06] | −5.9%
Cn1cc(C=C2C(=O)Nc3ccc(I)cc32)c2ccccc21 [10740/B07] | −8.5%
Cc1[nH]c2ccccc2c1C=C1C(=O)Nc2ccc(I)cc21 [10740/B08] | 6.6%
O=C1Nc2ccc(I)cc2C1=Cc1cc(Br)cs1 [10740/B10] | 11.8%
CCCCOc1ccc(C=C2C(=O)Nc3ccc(I)cc32)cc1 [10740/B11] | 0.7%
Cc1c(Br)ccc2c1C(=Cc1cnc3ccccc3c1)C(=O)N2 [10740/C02] | −5.9%
Cc1c(Br)ccc2c1C(=Cc1ccnc3ccccc13)C(=O)N2 [10740/C03] | −129.3%
COC1CCCN1C=C1C(=O)Nc2ccc(Br)c(C)c21 (stereo not shown) [10740/C04] | −3.4%
Cc1c(Br)ccc2c1C(=Cc1ccsc1)C(=O)N2 [10740/C05] | −19.1%
Cc1c(Br)ccc2c1C(=Cc1ccc3ccccc3n1)C(=O)N2 [10740/C06] | −19.1%
Cc1c(Br)ccc2c1C(=Cc1cn(C)c3ccccc13)C(=O)N2 [10740/C07] | 1.1%

SMILES | Flk Kinase % Inhibition (P.110)
Cc1[nH]c2ccccc2c1C=C1C(=O)Nc2ccc(Br)c(C)c21 [10740/C08] | 4.6%
Cc1c(Br)ccc2c1C(=Cc1cc(Br)cs1)C(=O)N2 [10740/C10] | 0.8%
CCCCOc1ccc(C=C2C(=O)Nc3ccc(Br)c(C)c32)cc1 [10740/C11] | 6.9%
CNS(=O)(=O)c1ccc2c(c1)C(=Cc1cnc3ccccc3c1)C(=O)N2 [10740/D02] | 4.1%
CNS(=O)(=O)c1ccc2c(c1)C(=Cc1ccnc3ccccc13)C(=O)N2 [10740/D03] | 15.1%
CNS(=O)(=O)c1ccc2c(c1)C(=CN1CCCC1OC)C(=O)N2 (stereo not shown) [10740/D04] | −2.0%
CNS(=O)(=O)c1ccc2c(c1)C(=Cc1ccsc1)C(=O)N2 [10740/D05] | −6.3%
CNS(=O)(=O)c1ccc2c(c1)C(=Cc1ccc3ccccc3n1)C(=O)N2 [10740/D06] | 9.6%
CNS(=O)(=O)c1ccc2c(c1)C(=Cc1cn(C)c3ccccc13)C(=O)N2 [10740/D07] | −4.5%
CNS(=O)(=O)c1ccc2c(c1)C(=Cc1c(C)[nH]c3ccccc13)C(=O)N2 [10740/D08] | −6.4%
CNS(=O)(=O)c1ccc2c(c1)C(=Cc1cc(Br)cs1)C(=O)N2 [10740/D10] | 1.5%
CCCCOc1ccc(C=C2C(=O)Nc3ccc(S(=O)(=O)NC)cc32)cc1 [10740/D11] | 3.0%
O=C1Nc2ccc(S(=O)(=O)Nc3ccc(C(F)(F)F)cc3)cc2C1=Cc1cnc2ccccc2c1 [10740/E02] | 9.6%
O=C1Nc2ccc(S(=O)(=O)Nc3ccc(C(F)(F)F)cc3)cc2C1=Cc1ccnc2ccccc12 [10740/E03] | 0.2%
COC1CCCN1C=C1C(=O)Nc2ccc(S(=O)(=O)Nc3ccc(C(F)(F)F)cc3)cc21 (stereo not shown) [10740/E04] | 2.0%
O=C1Nc2ccc(S(=O)(=O)Nc3ccc(C(F)(F)F)cc3)cc2C1=Cc1ccsc1 [10740/E05] | 28.7%
O=C1Nc2ccc(S(=O)(=O)Nc3ccc(C(F)(F)F)cc3)cc2C1=Cc1ccc2ccccc2n1 [10740/E06] | −8.4%
Cn1cc(C=C2C(=O)Nc3ccc(S(=O)(=O)Nc4ccc(C(F)(F)F)cc4)cc32)c2ccccc21 [10740/E07] | 34.4%
Cc1[nH]c2ccccc2c1C=C1C(=O)Nc2ccc(S(=O)(=O)Nc3ccc(C(F)(F)F)cc3)cc21 [10740/E08] | 39.1%
O=C1Nc2ccc(S(=O)(=O)Nc3ccc(C(F)(F)F)cc3)cc2C1=Cc1cc(Br)cs1 [10740/E10] | 11.8%
CCCCOc1ccc(C=C2C(=O)Nc3ccc(S(=O)(=O)Nc4ccc(C(F)(F)F)cc4)cc32)cc1 [10740/E11] | 17.1%
O=C1Nc2ccc(S(=O)(=O)N3CCOCC3)cc2C1=Cc1cnc2ccccc2c1 [10740/F02] | 2.8%
O=C1Nc2ccc(S(=O)(=O)N3CCOCC3)cc2C1=Cc1ccnc2ccccc12 [10740/F03] | −0.9%
COC1CCCN1C=C1C(=O)Nc2ccc(S(=O)(=O)N3CCOCC3)cc21 (stereo not shown) [10740/F04] | 6.8%
O=C1Nc2ccc(S(=O)(=O)N3CCOCC3)cc2C1=Cc1ccsc1 [10740/F05] | −13.5%

SMILES | Flk Kinase % Inhibition (P.110)
O=C1Nc2ccc(S(=O)(=O)N3CCOCC3)cc2C1=Cc1ccc2ccccc2n1 [10740/F06] | 1.3%
Cn1cc(C=C2C(=O)Nc3ccc(S(=O)(=O)N4CCOCC4)cc32)c2ccccc21 [10740/F07] | −6.3%
Cc1[nH]c2ccccc2c1C=C1C(=O)Nc2ccc(S(=O)(=O)N3CCOCC3)cc21 [10740/F08] | −5.0%
O=C1Nc2ccc(S(=O)(=O)N3CCOCC3)cc2C1=Cc1cc(Br)cs1 [10740/F10] | 10.0%
CCCCOc1ccc(C=C2C(=O)Nc3ccc(S(=O)(=O)N4CCOCC4)cc32)cc1 [10740/F11] | 8.2%
O=C1Nc2ccc(CCCl)cc2C1=Cc1cnc2ccccc2c1 [10740/G02] | −2.6%
O=C1Nc2ccc(CCCl)cc2C1=Cc1ccnc2ccccc12 [10740/G03] | −2.0%
COC1CCCN1C=C1C(=O)Nc2ccc(CCCl)cc21 (stereo not shown) [10740/G04] | −5.1%
O=C1Nc2ccc(CCCl)cc2C1=Cc1ccsc1 [10740/G05] | −18.6%
O=C1Nc2ccc(CCCl)cc2C1=Cc1ccc2ccccc2n1 [10740/G06] | −19.3%
Cn1cc(C=C2C(=O)Nc3ccc(CCCl)cc32)c2ccccc21 [10740/G07] | 0.4%
Cc1[nH]c2ccccc2c1C=C1C(=O)Nc2ccc(CCCl)cc21 [10740/G08] | −0.5%
O=C1Nc2ccc(CCCl)cc2C1=Cc1cc(Br)cs1 [10740/G10] | −2.8%
CCCCOc1ccc(C=C2C(=O)Nc3ccc(CCCl)cc32)cc1 [10740/G11] | 3.3%
Cc1c(Br)cc(Br)c2c1C(=Cc1cnc3ccccc3c1)C(=O)N2 [10740/H02] | −3.7%
Cc1c(Br)cc(Br)c2c1C(=Cc1ccnc3ccccc13)C(=O)N2 [10740/H03] | −9.7%
COC1CCCN1C=C1C(=O)Nc2c(Br)cc(Br)c(C)c21 (stereo not shown) [10740/H04] | 6.0%
Cc1c(Br)cc(Br)c2c1C(=Cc1ccsc1)C(=O)N2 [10740/H05] | 5.8%
Cc1c(Br)cc(Br)c2c1C(=Cc1ccc3ccccc3n1)C(=O)N2 [10740/H06] | 3.2%
Cc1c(Br)cc(Br)c2c1C(=Cc1cn(C)c3ccccc13)C(=O)N2 [10740/H07] | 10.1%
Cc1[nH]c2ccccc2c1C=C1C(=O)Nc2c(Br)cc(Br)c(C)c21 [10740/H08] | 11.5%
Cc1c(Br)cc(Br)c2c1C(=Cc1cc(Br)cs1)C(=O)N2 [10740/H10] | 0.4%
CCCCOc1ccc(C=C2C(=O)Nc3c(Br)cc(Br)c(C)c32)cc1 [10740/H11] | 7.4%
